# Source: ChEMBL document CHEMBL3045652, “Biorational glycol diesters as dietary toxins versus bioefficacy of sucrose octanoate against lepidopteran larvae” (Ind Crops Prod, 2012)
# Calls of active or inactive are those of the source. No cut-off for these calls is given here.
# How the values were obtained:
# [1] = test system: Spodoptera litura; assay: Insecticidal activity against second-instar larval stage of Spodoptera litura fed with artificial diet containing compound assessed as growth inhibition after 7 days; format: functional, organism-based; conditions: for EC50: 168 h
# [2] = test system: Helicoverpa armigera; assay: Antifeedant activity against third-instar larval stage of Helicoverpa armigera fed with artificial diet containing compound assessed as efficiency index of ingested food at 9.88 mg/ml after 3 days (reference value: 52%); format: functional
# [3] = test system: Helicoverpa armigera; assay: Antifeedant activity against third-instar larval stage of Helicoverpa armigera fed with artificial diet containing compound assessed as relative growth rate at 9.88 mg/ml after 3 days (reference value: 0.97 +/- 0.13 mg/mg/day); format: functional
# [4] = test system: Spodoptera litura; assay: Antifeedant activity against third-instar larval stage of Spodoptera litura fed with artificial diet containing compound assessed as relative consumption rate at 8.25 mg/ml after 3 days (reference value: 2.13 +/- 0.18 mg/mg/day); format: functional
# [5] = test system: Helicoverpa armigera; assay: Insecticidal activity against second-instar larval stage of Helicoverpa armigera fed with artificial diet containing compound assessed as mortality after 7 days; format: functional; conditions: 168 h
# [6] = test system: Helicoverpa armigera; assay: Antifeedant activity against third-instar larval stage of Helicoverpa armigera fed with artificial diet containing compound assessed as relative consumption rate at 9.88 mg/ml after 3 days (reference value: 1.88 +/- 0.14 mg/mg/day); format: functional
# [7] = test system: Spodoptera litura; assay: Antifeedant activity against third-instar larval stage of Spodoptera litura fed with artificial diet containing compound assessed as relative growth rate at 8.25 mg/ml after 3 days (reference value: 1.37 +/- 0.12 mg/mg/day); format: functional
# [8] = test system: Helicoverpa armigera; assay: Insecticidal activity against second-instar larval stage of Helicoverpa armigera fed with artificial diet containing compound assessed as growth inhibition after 7 days; format: functional, organism-based; conditions: for EC50: 168 h
# [9] = test system: Spodoptera litura; assay: Antifeedant activity against third-instar larval stage of Spodoptera litura fed with artificial diet containing compound assessed as efficiency index of ingested food at 8.25 mg/ml after 3 days (reference value: 64.5%); format: functional
# [10] = test system: Spodoptera litura; assay: Insecticidal activity against second-instar larval stage of Spodoptera litura fed with artificial diet containing compound assessed as mortality after 7 days; format: functional; conditions: 168 h
# [11] = test system: Helicoverpa armigera; assay: Antifeedant activity against third-instar larval stage of Helicoverpa armigera fed with artificial diet containing compound assessed as efficiency index of ingested food at 9.82 mg/ml after 3 days (reference value: 52%); format: functional
# [12] = test system: Spodoptera litura; assay: Antifeedant activity against third-instar larval stage of Spodoptera litura fed with artificial diet containing compound assessed as relative growth rate at 8.32 mg/ml after 3 days (reference value: 1.37 +/- 0.12 mg/mg/day); format: functional
# [13] = test system: Helicoverpa armigera; assay: Antifeedant activity against third-instar larval stage of Helicoverpa armigera fed with artificial diet containing compound assessed as relative consumption rate at 9.82 mg/ml after 3 days (reference value: 1.88 +/- 0.14 mg/mg/day); format: functional
# [14] = test system: Helicoverpa armigera; assay: Antifeedant activity against third-instar larval stage of Helicoverpa armigera fed with artificial diet containing compound assessed as relative growth rate at 9.82 mg/ml after 3 days (reference value: 0.97 +/- 0.13 mg/mg/day); format: functional
# [15] = test system: Spodoptera litura; assay: Antifeedant activity against third-instar larval stage of Spodoptera litura fed with artificial diet containing compound assessed as efficiency index of ingested food at 8.32 mg/ml after 3 days (reference value: 64.5%); format: functional
# [16] = test system: Spodoptera litura; assay: Antifeedant activity against third-instar larval stage of Spodoptera litura fed with artificial diet containing compound assessed as relative consumption rate at 8.32 mg/ml after 3 days (reference value: 2.13 +/- 0.18 mg/mg/day); format: functional
# [17] = test system: Spodoptera litura; assay: Antifeedant activity against third-instar larval stage of Spodoptera litura fed with artificial diet containing compound assessed as efficiency index of ingested food at 4.38 mg/ml after 3 days (reference value: 64.5%); format: functional
# [18] = test system: Helicoverpa armigera; assay: Antifeedant activity against third-instar larval stage of Helicoverpa armigera fed with artificial diet containing compound assessed as relative consumption rate at 5.38 mg/ml after 3 days (reference value: 1.88 +/- 0.14 mg/mg/day); format: functional
# [19] = test system: Helicoverpa armigera; assay: Antifeedant activity against third-instar larval stage of Helicoverpa armigera fed with artificial diet containing compound assessed as relative growth rate at 5.38 mg/ml after 3 days (reference value: 0.97 +/- 0.13 mg/mg/day); format: functional
# [20] = test system: Spodoptera litura; assay: Antifeedant activity against third-instar larval stage of Spodoptera litura fed with artificial diet containing compound assessed as relative growth rate at 4.38 mg/ml after 3 days (reference value: 1.37 +/- 0.12 mg/mg/day); format: functional
# [21] = test system: Spodoptera litura; assay: Insecticidal activity against second-instar larval stage of Spodoptera litura assessed as increase in mortality applied as spray at 1 to 10 mg/ml after 72 hr; format: functional, organism-based
# [22] = test system: Helicoverpa armigera; assay: Insecticidal activity against second-instar larval stage of Helicoverpa armigera assessed as increase in mortality applied as spray at 1 to 10 mg/ml after 72 hr; format: functional, organism-based
# [23] = test system: Helicoverpa armigera; assay: Antifeedant activity against third-instar larval stage of Helicoverpa armigera fed with artificial diet containing compound assessed as efficiency index of ingested food at 5.38 mg/ml after 3 days (reference value: 52%); format: functional
# [24] = test system: Spodoptera litura; assay: Antifeedant activity against third-instar larval stage of Spodoptera litura fed with artificial diet containing compound assessed as relative consumption rate at 4.38 mg/ml after 3 days (reference value: 2.13 +/- 0.18 mg/mg/day); format: functional
Compound,growth inhibition (GI) [1],EC50 [1] [µg/mL],LC50 [5] [µg/mL],growth inhibition (GI) [8],EC50 [8] [µg/mL],LC50 [10] [µg/mL],also measured
"CCCC(CC)C(=O)OCCCCCOC(=O)C(CC)CCC (stereo not drawn) [PENTANE-1,5-DI-(2-ETHYLHEXANOATE)]",Dose-dependent effect,7850,2000,Dose-dependent effect,5560,2000,ECI [2]: 40%; Activity [3]: 0.72 mg/mg/day; Activity [4]: 1.99 mg/mg/day; Activity [6]: 1.8 mg/mg/day; Activity [7]: 1.06 mg/mg/day; ECI [9]: 46%
"CC(C)C(=O)OCCCCCOC(=O)C(C)C [PENTANE-1,5-DI-ISOBUTANOATE]",Dose-dependent effect,7660,–,Dose-dependent effect,7580,–,–
"CCCC(=O)OCCCCCOC(=O)CCC [PENTANE-1,5-DIBUTANOATE]",Dose-dependent effect,4860,–,Dose-dependent effect,4500,–,–
"CCCCCC(=O)OCCCCCOC(=O)CCCCC [PENTANE-1,5-DIHEXANOATE]",Dose-dependent effect,7510,–,Dose-dependent effect,8050,–,–
"CCCCCCCC(=O)OCCCCCOC(=O)CCCCCCC [PENTANE-1,5-DIOCTANOATE]",Dose-dependent effect,4760,–,Dose-dependent effect,4670,–,–
"CCCCC(=O)OCCCCCOC(=O)CCCC [PENTANE-1,5-DIPENTANOATE]",Dose-dependent effect,5010,2000,Dose-dependent effect,5880,2000,ECI [11]: 37.2%; Activity [12]: 0.94 mg/mg/day; Activity [13]: 1.79 mg/mg/day; Activity [14]: 0.66 mg/mg/day; ECI [15]: 44%; Activity [16]: 2.02 mg/mg/day
CCCC(=O)OCCOCCOCCOC(=O)CCC [TRIETHYLENE GLYCOL DIBUTANOATE],Dose-dependent effect,1640,2000,Dose-dependent effect,2120,2000,ECI [17]: 61%; Activity [18]: 1.67 mg/mg/day; Activity [19]: 0.54 mg/mg/day; Activity [20]: 0.77 mg/mg/day; Activity [21]: Active; Activity [22]: Active; ECI [23]: 32.7%; Activity [24]: 2.06 mg/mg/day
CCCCC(=O)OCCOCCOCCOC(=O)CCCC [TRIETHYLENE GLYCOL DIPENTANOATE],Dose-dependent effect,1540,–,Dose-dependent effect,2090,–,–
